In brackets after ≈: the same amount, converted by molar mass.
Key:
[1] = AUC (0-6 hrs) in rat at 10 mg/kg, po; type: ADME, organism-based; set-up: time < 6 hr, dose 10 mg/kg, route oral; conditions: plasma
[2] = Inhibition of Aurora kinase assessed as reduction histone H3 Ser10 phosphorylation by cell based assay
Aurora kinase A = target: T1, Aurora kinase A (Homo sapiens, UniProt O14965); experiment: Inhibition of Aurora A
T1 sequence (O14965 whole entry): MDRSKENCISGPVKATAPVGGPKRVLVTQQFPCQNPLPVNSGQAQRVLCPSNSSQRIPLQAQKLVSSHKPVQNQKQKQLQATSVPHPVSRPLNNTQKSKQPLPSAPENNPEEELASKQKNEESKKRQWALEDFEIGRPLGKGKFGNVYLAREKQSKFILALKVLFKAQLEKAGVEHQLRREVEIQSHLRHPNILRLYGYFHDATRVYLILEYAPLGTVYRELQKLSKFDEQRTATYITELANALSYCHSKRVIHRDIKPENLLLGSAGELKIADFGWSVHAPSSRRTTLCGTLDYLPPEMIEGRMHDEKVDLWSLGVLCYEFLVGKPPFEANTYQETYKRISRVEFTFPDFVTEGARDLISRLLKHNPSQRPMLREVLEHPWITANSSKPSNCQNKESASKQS

Aurora kinase B = Aurora kinase B (Homo sapiens, UniProt Q96GD4); experiment: Inhibition of Aurora B
[3] = target: Tyrosine-protein kinase Lck (Homo sapiens, UniProt P06239); experiment: Inhibition of LCK
A2780 [4] = experiment: Antitumor activity against human A2780 cells xenografted in nu/nu mouse assessed as tumor growth inhibition administered twice daily for 3 or 5 days; type: functional, cell-based
[5] = AUC (0-infinity) in rat at 10 mg/kg, iv; type: ADME, organism-based; set-up: time infinity, dose 10 mg/kg, route intravenous; conditions: plasma
[6] = Oral bioavailability in rat at 30 mg/kg, po; type: ADME, organism-based; conditions: in vivo
Canis familiaris [7] = experiment: Half life in dog at 1 mg/kg, iv; type: ADME, organism-based, Canis lupus familiaris; set-up: dose 1 mg/kg, route intravenous; conditions: in vivo
[8] = target: T2, Interleukin-1 receptor-associated kinase 4 (Homo sapiens, UniProt Q9NWZ3); experiment: Inhibition of IRK4
T2 sequence (Q9NWZ3 whole entry): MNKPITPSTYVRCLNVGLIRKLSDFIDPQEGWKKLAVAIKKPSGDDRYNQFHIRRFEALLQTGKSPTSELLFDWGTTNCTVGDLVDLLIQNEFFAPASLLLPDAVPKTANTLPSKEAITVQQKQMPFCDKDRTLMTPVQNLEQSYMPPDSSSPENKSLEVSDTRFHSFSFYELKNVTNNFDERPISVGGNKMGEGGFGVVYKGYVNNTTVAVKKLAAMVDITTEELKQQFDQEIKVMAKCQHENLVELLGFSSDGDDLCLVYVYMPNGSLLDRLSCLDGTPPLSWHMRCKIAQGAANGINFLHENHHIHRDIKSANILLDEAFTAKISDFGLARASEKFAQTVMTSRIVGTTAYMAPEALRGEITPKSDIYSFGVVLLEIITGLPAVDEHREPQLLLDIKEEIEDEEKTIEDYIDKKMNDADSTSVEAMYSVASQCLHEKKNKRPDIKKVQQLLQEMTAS

A2780 [9] = experiment: Antitumor activity against human A2780 cells xenografted in nu/nu mouse assessed as tumor growth inhibition at 67.5 mg/kg, po bid for 3 days relative to untreated control; type: functional; conditions: A2780, 72 h, read-out: TGI
Canis familiaris [10] = experiment: Oral bioavailability in dog at 10 mg/kg, po; type: ADME, organism-based, Canis lupus familiaris; conditions: in vivo
[11] = Half life in rat at 10 mg/kg, iv; type: ADME, organism-based; set-up: dose 10 mg/kg, route intravenous; conditions: in vivo
Canis familiaris [12] = experiment: AUC (0-infinity) in dog at 10 mg/kg, po; type: ADME, organism-based, Canis lupus familiaris, Plasma; set-up: time infinity, dose 10 mg/kg, route oral; conditions: in vivo
[13] = target: Vascular endothelial growth factor receptor 2 (Homo sapiens, UniProt P35968); experiment: Inhibition of VEGFR2
Canis familiaris [14] = experiment: Volume of distribution at steady state in dog at 1 mg/kg, iv; type: ADME, organism-based, Canis lupus familiaris; set-up: dose 1 mg/kg, route intravenous; conditions: in vivo
[15] = AUC (0-infinity) in rat at 30 mg/kg, po; type: ADME, organism-based; set-up: time infinity, dose 30 mg/kg, route oral; conditions: plasma
[16] = Volume of distribution at steady state in mouse at 3 mg/kg, iv; type: ADME, organism-based; set-up: dose 3 mg/kg, route intravenous; conditions: in vivo, read-out: Vdss
A2780 [17] = experiment: Antitumor activity against human A2780 cells xenografted in nu/nu mouse assessed as tumor growth inhibition at 90 mg/kg, po bid for 3 days relative to untreated control; type: functional; conditions: A2780, 72 h, read-out: TGI
[18] = target: Mitogen-activated protein kinase 1 (Homo sapiens, UniProt P28482); experiment: Inhibition of ERK2
[19] = target: Tyrosine-protein kinase JAK2 (Homo sapiens, UniProt O60674); experiment: Inhibition of JAK2
[20] = Clearance in rat at 10 mg/kg, iv; type: ADME, organism-based; set-up: dose 10 mg/kg, route intravenous; conditions: in vivo
A2780 [21] = experiment: Antitumor activity against human A2780 cells xenografted in nu/nu mouse assessed as tumor growth inhibition at 45 mg/kg, po bid for 5 days relative to untreated control; type: functional; conditions: A2780, 120 h, read-out: TGI
[22] = AUC (0-infinity) in mouse at 3 mg/kg, iv; type: ADME, organism-based; set-up: time infinity, dose 3 mg/kg, route intravenous; conditions: plasma
[23] = AUC (0-infinity) in mouse at 50 mg/kg, po; type: ADME, organism-based; set-up: time infinity, dose 50 mg/kg, route oral; conditions: plasma
A2780 [24] = experiment: Antitumor activity against human A2780 cells assessed as inhibition of cell growth; type: functional, cell-based
[25] = Oral bioavailability in mouse at 50 mg/kg, po; type: ADME, organism-based; conditions: in vivo
[26] = target: T3, Serine/threonine-protein kinase Chk1 (Homo sapiens, UniProt O14757); experiment: Inhibition of CHK1
T3 sequence (O14757 whole entry): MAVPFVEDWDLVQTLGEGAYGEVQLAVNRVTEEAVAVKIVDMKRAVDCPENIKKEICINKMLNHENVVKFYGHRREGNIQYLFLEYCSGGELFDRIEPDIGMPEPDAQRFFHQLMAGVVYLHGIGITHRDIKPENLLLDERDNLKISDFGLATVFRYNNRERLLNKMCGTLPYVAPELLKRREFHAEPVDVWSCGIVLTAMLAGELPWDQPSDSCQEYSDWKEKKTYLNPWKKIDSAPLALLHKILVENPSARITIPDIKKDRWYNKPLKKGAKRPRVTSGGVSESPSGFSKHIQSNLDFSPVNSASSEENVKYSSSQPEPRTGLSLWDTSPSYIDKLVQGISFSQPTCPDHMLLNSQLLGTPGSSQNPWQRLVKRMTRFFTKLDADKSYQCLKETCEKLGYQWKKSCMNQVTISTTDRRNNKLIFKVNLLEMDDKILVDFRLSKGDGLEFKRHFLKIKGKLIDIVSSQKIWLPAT

Canis familiaris [27] = experiment: AUC (0-infinity) in dog at 1 mg/kg, iv; type: ADME, organism-based, Canis lupus familiaris, Plasma; set-up: time infinity, dose 1 mg/kg, route intravenous; conditions: in vivo
[28] = Clearance in mouse at 3 mg/kg, iv; type: ADME, organism-based; set-up: dose 3 mg/kg, route intravenous; conditions: in vivo
[29] = Solubility in 20 mM acetate buffer at pH 4.0; type: physicochemical
A2780 [30] = experiment: Antitumor activity against human A2780 cells assessed as inhibition of cell survival; type: functional, cell-based
[31] = target: Ribosomal protein S6 kinase alpha-3 (Homo sapiens, UniProt P51812); experiment: Inhibition of RSK2
[32] = Volume of distribution at steady state in rat at 10 mg/kg, iv; type: ADME, organism-based; set-up: dose 10 mg/kg, route intravenous; conditions: in vivo, read-out: Vdss
[33] = Half life in mouse at 3 mg/kg, iv; type: ADME, organism-based; set-up: dose 3 mg/kg, route intravenous; conditions: in vivo

Chain of Aurora kinase B (Q96GD4 whole entry): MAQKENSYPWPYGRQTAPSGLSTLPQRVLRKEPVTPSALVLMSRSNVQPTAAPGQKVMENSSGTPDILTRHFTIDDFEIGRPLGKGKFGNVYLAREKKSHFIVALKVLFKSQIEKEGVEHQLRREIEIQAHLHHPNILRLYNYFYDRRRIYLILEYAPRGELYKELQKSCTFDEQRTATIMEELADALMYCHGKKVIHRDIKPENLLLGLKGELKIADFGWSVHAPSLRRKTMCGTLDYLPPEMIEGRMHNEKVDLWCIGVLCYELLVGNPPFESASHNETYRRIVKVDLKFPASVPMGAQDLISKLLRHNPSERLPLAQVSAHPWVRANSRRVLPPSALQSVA
Chain of Tyrosine-protein kinase Lck (P06239 whole entry): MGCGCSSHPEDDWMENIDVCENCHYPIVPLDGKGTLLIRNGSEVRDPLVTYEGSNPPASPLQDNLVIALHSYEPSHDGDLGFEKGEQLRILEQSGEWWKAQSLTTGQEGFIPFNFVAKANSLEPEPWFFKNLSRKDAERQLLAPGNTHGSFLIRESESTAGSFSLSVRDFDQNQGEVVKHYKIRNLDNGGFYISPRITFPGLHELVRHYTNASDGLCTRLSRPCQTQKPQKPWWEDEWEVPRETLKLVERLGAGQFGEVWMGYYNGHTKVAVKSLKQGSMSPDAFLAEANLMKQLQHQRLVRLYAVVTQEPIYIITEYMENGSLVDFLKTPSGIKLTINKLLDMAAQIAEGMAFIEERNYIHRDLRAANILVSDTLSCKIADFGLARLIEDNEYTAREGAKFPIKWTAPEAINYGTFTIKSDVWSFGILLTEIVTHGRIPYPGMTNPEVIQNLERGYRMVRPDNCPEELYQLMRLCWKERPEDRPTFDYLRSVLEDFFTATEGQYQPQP
Chain of Ribosomal protein S6 kinase alpha-3 (P51812 whole entry): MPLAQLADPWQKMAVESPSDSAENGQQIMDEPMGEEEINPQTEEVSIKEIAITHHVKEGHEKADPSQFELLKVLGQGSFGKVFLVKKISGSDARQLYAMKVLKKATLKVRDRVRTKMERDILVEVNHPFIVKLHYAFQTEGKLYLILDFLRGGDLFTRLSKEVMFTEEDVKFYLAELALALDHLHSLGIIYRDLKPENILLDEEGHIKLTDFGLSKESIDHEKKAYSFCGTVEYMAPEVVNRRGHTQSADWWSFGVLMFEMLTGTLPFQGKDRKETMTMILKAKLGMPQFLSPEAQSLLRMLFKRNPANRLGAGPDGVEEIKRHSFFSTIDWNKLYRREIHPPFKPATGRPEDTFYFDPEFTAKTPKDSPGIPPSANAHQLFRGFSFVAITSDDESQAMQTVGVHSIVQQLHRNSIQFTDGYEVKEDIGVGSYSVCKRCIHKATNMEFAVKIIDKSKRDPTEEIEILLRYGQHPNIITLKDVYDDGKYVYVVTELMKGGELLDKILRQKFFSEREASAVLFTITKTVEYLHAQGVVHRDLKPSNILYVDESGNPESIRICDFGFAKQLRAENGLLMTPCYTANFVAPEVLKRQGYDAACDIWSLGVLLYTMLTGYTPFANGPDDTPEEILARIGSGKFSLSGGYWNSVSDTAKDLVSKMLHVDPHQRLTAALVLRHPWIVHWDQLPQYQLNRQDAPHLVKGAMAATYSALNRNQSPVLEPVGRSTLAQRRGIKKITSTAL
Chain of Tyrosine-protein kinase JAK2 (O60674 whole entry): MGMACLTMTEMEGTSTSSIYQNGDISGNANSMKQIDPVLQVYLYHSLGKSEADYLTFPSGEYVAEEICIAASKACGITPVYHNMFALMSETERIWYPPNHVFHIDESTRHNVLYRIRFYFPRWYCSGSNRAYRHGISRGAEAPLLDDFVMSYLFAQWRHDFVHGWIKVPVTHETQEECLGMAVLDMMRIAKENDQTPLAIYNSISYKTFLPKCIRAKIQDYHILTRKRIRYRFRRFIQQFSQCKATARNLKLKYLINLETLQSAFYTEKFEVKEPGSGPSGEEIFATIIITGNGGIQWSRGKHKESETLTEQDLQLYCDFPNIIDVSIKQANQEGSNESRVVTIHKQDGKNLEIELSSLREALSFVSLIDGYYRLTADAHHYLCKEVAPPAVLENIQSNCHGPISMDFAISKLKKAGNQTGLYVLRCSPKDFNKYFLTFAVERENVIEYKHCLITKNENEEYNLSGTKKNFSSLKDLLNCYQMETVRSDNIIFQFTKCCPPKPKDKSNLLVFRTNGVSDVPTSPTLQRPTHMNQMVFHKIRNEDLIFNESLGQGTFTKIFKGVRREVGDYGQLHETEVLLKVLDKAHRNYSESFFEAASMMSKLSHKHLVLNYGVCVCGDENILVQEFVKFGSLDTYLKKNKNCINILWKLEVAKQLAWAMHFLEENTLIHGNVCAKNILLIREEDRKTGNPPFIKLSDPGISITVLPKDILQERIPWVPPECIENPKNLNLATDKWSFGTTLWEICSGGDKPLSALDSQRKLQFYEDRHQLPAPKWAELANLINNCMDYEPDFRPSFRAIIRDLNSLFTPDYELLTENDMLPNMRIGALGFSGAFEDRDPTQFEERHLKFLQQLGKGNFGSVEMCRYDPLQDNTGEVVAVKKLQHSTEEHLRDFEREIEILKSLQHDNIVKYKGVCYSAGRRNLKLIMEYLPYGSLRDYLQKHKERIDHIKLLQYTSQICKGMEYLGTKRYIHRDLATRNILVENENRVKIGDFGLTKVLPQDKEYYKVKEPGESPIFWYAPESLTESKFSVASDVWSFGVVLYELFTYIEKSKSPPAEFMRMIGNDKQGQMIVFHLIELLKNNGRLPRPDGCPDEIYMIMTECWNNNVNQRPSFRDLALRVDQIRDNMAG
Chain of Mitogen-activated protein kinase 1 (P28482 whole entry): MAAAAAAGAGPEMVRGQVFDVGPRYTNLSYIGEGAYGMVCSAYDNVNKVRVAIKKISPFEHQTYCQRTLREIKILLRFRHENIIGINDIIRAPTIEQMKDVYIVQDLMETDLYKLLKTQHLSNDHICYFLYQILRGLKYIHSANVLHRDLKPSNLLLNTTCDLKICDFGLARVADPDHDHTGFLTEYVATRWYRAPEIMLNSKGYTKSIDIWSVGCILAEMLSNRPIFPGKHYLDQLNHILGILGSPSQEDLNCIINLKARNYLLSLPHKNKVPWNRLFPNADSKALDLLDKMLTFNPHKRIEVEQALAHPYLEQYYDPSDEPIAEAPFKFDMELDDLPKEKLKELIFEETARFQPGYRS
Chain of Vascular endothelial growth factor receptor 2 (P35968 whole entry): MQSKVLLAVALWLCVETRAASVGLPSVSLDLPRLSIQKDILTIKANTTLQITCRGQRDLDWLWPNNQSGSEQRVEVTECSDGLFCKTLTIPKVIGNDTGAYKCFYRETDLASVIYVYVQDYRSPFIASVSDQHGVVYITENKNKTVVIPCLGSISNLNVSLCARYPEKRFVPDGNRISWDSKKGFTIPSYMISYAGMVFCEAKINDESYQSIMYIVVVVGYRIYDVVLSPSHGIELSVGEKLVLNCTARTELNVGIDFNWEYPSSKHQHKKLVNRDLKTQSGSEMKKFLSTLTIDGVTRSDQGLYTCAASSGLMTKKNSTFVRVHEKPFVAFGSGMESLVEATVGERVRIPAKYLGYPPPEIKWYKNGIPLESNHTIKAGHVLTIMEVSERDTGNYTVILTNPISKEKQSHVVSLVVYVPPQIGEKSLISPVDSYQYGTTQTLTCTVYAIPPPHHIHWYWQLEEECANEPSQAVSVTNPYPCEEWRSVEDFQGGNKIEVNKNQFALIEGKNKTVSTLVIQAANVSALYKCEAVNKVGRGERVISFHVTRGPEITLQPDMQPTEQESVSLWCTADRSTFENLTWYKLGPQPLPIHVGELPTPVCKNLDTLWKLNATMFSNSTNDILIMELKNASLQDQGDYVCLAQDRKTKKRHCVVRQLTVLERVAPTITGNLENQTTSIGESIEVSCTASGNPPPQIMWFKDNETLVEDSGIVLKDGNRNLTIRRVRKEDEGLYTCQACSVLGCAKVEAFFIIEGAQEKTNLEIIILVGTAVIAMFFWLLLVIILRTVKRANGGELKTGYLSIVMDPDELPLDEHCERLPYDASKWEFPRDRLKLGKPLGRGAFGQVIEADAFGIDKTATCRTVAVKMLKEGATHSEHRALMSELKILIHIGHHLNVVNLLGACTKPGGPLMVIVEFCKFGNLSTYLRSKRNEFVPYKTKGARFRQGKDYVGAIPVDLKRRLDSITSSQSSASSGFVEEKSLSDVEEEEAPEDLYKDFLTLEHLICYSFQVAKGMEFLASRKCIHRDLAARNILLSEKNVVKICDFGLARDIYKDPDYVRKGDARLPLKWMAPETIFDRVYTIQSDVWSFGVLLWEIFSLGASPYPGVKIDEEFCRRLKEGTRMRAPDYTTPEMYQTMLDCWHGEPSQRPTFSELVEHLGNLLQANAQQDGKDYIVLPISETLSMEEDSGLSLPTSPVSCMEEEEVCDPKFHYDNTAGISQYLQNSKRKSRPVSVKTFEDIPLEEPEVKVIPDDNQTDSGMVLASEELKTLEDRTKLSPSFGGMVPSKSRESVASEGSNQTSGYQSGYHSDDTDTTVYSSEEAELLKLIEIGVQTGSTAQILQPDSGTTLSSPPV

SMILES: Cc1cn2c(-c3cn[nH]c3)cnc2c(Nc2cc([C@H](C)N3C[C@@H](C)O[C@@H](C)C3)ns2)n1
- AUC(0-t) at 6 h [1]: 1.1 µM·h
- EC50 [2]: 217 nM

SMILES: Cc1cn2c(-c3cn[nH]c3)cnc2c(Nc2cc(C(C)N3CCOCC3)ns2)n1 (racemic)
- AUC(0-t) at 6 h [1]: 1.1 µM·h
- IC50 (Aurora kinase A): ≤ 4 nM
- IC50 (Aurora kinase B): ≤ 13 nM
- EC50 [2]: 74 nM

SMILES: CSc1cn2c(-c3cn[nH]c3)cnc2c(Nc2cc(C)ns2)n1
- IC50 (Aurora kinase B): ≤ 13 nM
- EC50 [2]: 600 nM

SMILES: Cc1cn2c(-c3cn[nH]c3)cnc2c(Nc2cc(CN3C[C@@H](C)O[C@@H](C)C3)ns2)n1
- AUC(0-t) at 6 h [1]: 7.3 µM·h
- IC50 (Aurora kinase A): ≤ 4 nM
- IC50 (Aurora kinase B): ≤ 13 nM
- EC50 [2]: 82 nM

SMILES: Cc1cn2c(-c3cn[nH]c3)cnc2c(Nc2cc(CN3CCN(C)CC3)ns2)n1
- IC50 (Aurora kinase A): ≤ 4 nM
- IC50 (Aurora kinase B): ≤ 13 nM
- EC50 [2]: 412 nM

SMILES: Cc1cn2c(-c3cn[nH]c3)cnc2c(Nc2cc(CN3CCOCC3(C)C)ns2)n1
- AUC(0-t) at 6 h [1]: 3.3 µM·h
- IC50 (Aurora kinase A): ≤ 4 nM
- IC50 (Aurora kinase B): ≤ 13 nM
- EC50 [2]: 117 nM
- IC50 [3]: 384 nM

SMILES: Cc1cn2c(-c3cn[nH]c3)cnc2c(Nc2cc(CN3C[C@H](C)OC[C@@H]3C)ns2)n1
- AUC(0-t) at 6 h [1]: 3.9 µM·h
- IC50 (Aurora kinase A): ≤ 4 nM
- IC50 (Aurora kinase B): ≤ 13 nM
- EC50 [2]: 256 nM

SMILES: Cc1cn2c(-c3cn[nH]c3)cnc2c(Nc2cc(CN3CCOCC34CCC4)ns2)n1
- AUC(0-t) at 6 h [1]: 0.4 µM·h
- IC50 (Aurora kinase A): ≤ 4 nM
- IC50 (Aurora kinase B): ≤ 13 nM
- EC50 [2]: 197 nM

SMILES: Cc1cn2c(-c3cn[nH]c3)cnc2c(Nc2cc(CN3CCOC(C)(C)C3)ns2)n1
- IC50 (Aurora kinase A): ≤ 4 nM
- IC50 (Aurora kinase B): ≤ 13 nM
- EC50 [2]: 250 nM

SMILES: Cc1cn2c(-c3cn[nH]c3)cnc2c(Nc2cc([C@@H](C)N3C[C@@H](C)O[C@@H](C)C3)ns2)n1
- TGI (A2780 [4]): Dose-dependent effect
- AUC(0-inf) [5]: 38.8 µM·h
- bioavailability [6]: 72%
- t1/2 (Canis familiaris [7]): 4.8 h
- IC50 [8]: 1800 nM
- AUC(0-t) at 6 h [1]: 4.6 µM·h
- inhibition in vivo at 67.5 mg/kg (A2780 [9]): 67%
- F (Canis familiaris [10]): 50%
- half-life [11]: 300 min
- AUC (Canis familiaris [12]): 2.2 µM·h
- IC50 [13]: 710 nM
- IC50 (Aurora kinase A): ≤ 4 nM
- Vdss (Canis familiaris [14]): 12 L/kg
- AUC(0-inf) [15]: 57.7 µM·h
- Vd [16]: 1.5 L/kg
- inhibition in vivo at 90 mg/kg (A2780 [17]): 79%
- IC50 [18]: > 10 nM
- IC50 (Aurora kinase B): ≤ 13 nM
- IC50 [19]: > 10 nM
- clearance [20]: 10 mL/min/kg
- EC50 [2]: 28 nM
- inhibition in vivo at 45 mg/kg (A2780 [21]): 41%
- AUC(0-inf) [22]: 5.6 µM·h
- AUC(0-inf) [23]: 86.4 µM·h
- IC50 [3]: 510 nM
- EC50 (A2780 [24]): 19 nM
- bioavailability [25]: 92%
- IC50 [26]: 140 nM
- AUC (Canis familiaris [27]): 3.4 µM·h
- clearance [28]: 20 mL/min/kg
- solubility [29]: 4660 µg/mL (≈ 10.6 mM)
- EC50 (A2780 [30]): 20 nM
- IC50 [31]: 330 nM
- Vd [32]: 1.6 L/kg
- half-life [33]: 234 min

SMILES: CC(=O)N1CCN(Cc2cc(Nc3nc(C)cn4c(-c5cn[nH]c5)cnc34)sn2)CC1
- IC50 (Aurora kinase A): ≤ 4 nM
- IC50 (Aurora kinase B): ≤ 13 nM
- EC50 [2]: > 1000 nM

SMILES: Cc1cn2c(-c3cn[nH]c3)cnc2c(Nc2cc(C(C)N3CCOC(C)(C)C3)ns2)n1 (racemic)
- AUC(0-t) at 6 h [1]: 1.3 µM·h
- IC50 (Aurora kinase A): ≤ 4 nM
- IC50 (Aurora kinase B): ≤ 13 nM
- EC50 [2]: 71 nM

SMILES: Cc1cn2c(-c3cn[nH]c3)cnc2c(Nc2cc(CN3CCCCC3(C)C)ns2)n1
- AUC(0-t) at 6 h [1]: 0.5 µM·h
- IC50 (Aurora kinase A): ≤ 4 nM
- IC50 (Aurora kinase B): ≤ 13 nM
- EC50 [2]: 14 nM
- IC50 [3]: 45 nM

SMILES: Cc1cc(Nc2nc(C)cn3c(-c4cn[nH]c4)cnc23)sn1
- IC50 (Aurora kinase B): ≤ 13 nM
- EC50 [2]: 250 nM
- IC50 [3]: 568 nM
